For eight molecules, GI50 and TGI results are on record in PubChem BioAssay (NCI).

What all share (assay): growth of human tumour cells (NCI), 48 h
Assay [1] relates to SNB-75 CNS.
The subject of assay [2] is ACHN renal.
Assay [3] concerns SW-620 colon.
Assay [4] relates to 786-0 renal.
Assay [5] deals with PC-3 prostate.
The test system of assay [6] is MDA-MB-435.
Assay [7] has as its system MALME-3M melanoma.
For assay [8], the system named is BT-549 breast.
The subject of assay [9] is OVCAR-5 ovarian.
Assay [10] concerns COLO 205 colon.

Where “and” joins values, the source holds several entries; their conditions need not be identical. Equal values may be shown once.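 Cultured in 96-well plates, cells were exposed to test compound for 48 hours across five concentrations. Abbreviation: GI50, concentration required for 50% inhibition of growth. The concentration for full growth arrest is given as TGI.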 Some results are limits rather than exact numbers.

Regarding `NC(=O)c1ccc(Oc2nccc(-c3c(-c4ccc(F)cc4)ncn3C3CCNCC3)n2)cc1`, the GI50 in assay [1], in assay [2], in assay [3], in assay [4], in [5] and in assay [6] was greater than 25 µM in each case. Moreover, the GI50 in assay [7], in assay [8], in [9] and in assay [10] was greater than 25 µM each time. For the same molecule, the TGI in assay [1], in assay [2], in assay [3], in assay [4], in assay [5] and in assay [6] was greater than 25 µM throughout. In addition, the TGI in assay [7], in [8], in [9] and in assay [10] was greater than 25 µM in each case.
As to `Cc1c(C#N)cccc1[C@@H](C)Nc1nnc(C)c2cnc(N3CCOCC3)cc12`, the GI50 in assay [1] was 17.7 µM; in [2] it was 21.4 µM; in [3], 18.9 µM; in [4], 13.7 µM; in assay [5], 27.8 µM; in assay [6], 18.3 µM. Besides, the GI50 in [7] is 21.4 µM; in assay [8], 13.1 µM; in assay [9], 42.2 µM; in assay [10], 22.4 µM. Also, the TGI in assay [1] was greater than 100 µM; in assay [2], greater than 100 µM; in [3], greater than 100 µM; in assay [4], greater than 100 µM; in [5], greater than 100 µM; in [6] it was 49.1 µM. In addition, the TGI in assay [7] was 58.5 µM; in assay [8] it was 48.2 µM; in assay [9], greater than 100 µM; in assay [10], 60.8 µM.
With `CNCCCNc1nc2ccccc2c2c(=O)c3cc(OC)ccc3sc12`, the GI50 in [1] is 1.69 µM; in assay [2] it was 1.64 µM; in assay [3], 1.72 µM; in assay [4], 1.66 µM; in [5], 1.74 µM; in assay [6], 1.8 µM. For the same molecule, the GI50 in [7] was 1.67 µM; in assay [8], 12.8 µM; in assay [9] it was 1.67 µM; in assay [10], 2.06 µM. In addition, the TGI in [1] came to 3.39 µM; in assay [2] it was 3 µM; in assay [3] it was 3.28 µM; in [4] it was 3.17 µM; in assay [5] it was 3.45 µM; in [6] it was 3.24 µM. The TGI in assay [7] worked out at 3.15 µM; in assay [8] it was 26.8 µM; in assay [9] it was 3.08 µM; in assay [10] it was 4.4 µM.
As to `CCCCCCSSC(=S)N(CC)CC`, the GI50 in assay [1] is 16.8 µM; in [2], 20.1 µM; in assay [3], 18.5 µM; in [4] it was 20.4 µM; in [5] it was 20.5 µM; in assay [6], 22.1 µM. For the same molecule, the GI50 is 23 µM in assay [7], 17.1 µM in assay [8] and 20.5 µM in assay [9]. Besides, the TGI in [1] turned out to be 47.6 µM; in assay [2], 41.7 µM; in assay [3], 39.6 µM; in assay [4], 39.4 µM; in [5] it was 57.6 µM; in assay [6], 57.9 µM. In addition, the TGI in assay [7] came to 60.4 µM; in assay [8], 45.2 µM; in assay [9], 35.9 µM.
Regarding `CCCCCC(O)C(O)CCC[C@H](O)[C@H]1CC[C@H]([C@H]2CC[C@H]([C@H](O)CCCCCCCCCCCCC3=C[C@H](C)OC3=O)O2)O1` (stereo not given in full), the GI50 in assay [1] was 15.2 µM; in [2], 2.41 µM; in [3] it was 7.51 µM; in assay [4] it was 11.1 µM; in assay [5], 9.15 µM; in assay [6] it was 6.84 µM. Besides, the TGI is 37.9 µM in assay [1]; 6.27 µM and 20.8 µM in assay [2]; greater than 100 µM in [3]; 30.8 µM in assay [4]; 25.4 µM in [5]; 29.8 µM in [7]. For the same molecule, the TGI in assay [8] is 2.79 µM and 25.5 µM; in [9] it was 35.4 µM; in [10], 14.2 µM.
`COc1ccccc1S(=O)(=O)Nc1ccc2c3c(cc(CCC(=O)NCCCCNc4cccc5c4C(=O)N(C4CCC(=O)NC4=O)C5=O)cc13)C(=O)N2C` (stereo not given): the GI50 is 0.0718 µM in assay [1]; greater than 100 µM in [2]; 0.24 µM in [3]; 2.18 µM in assay [4]; 0.204 µM in [5]; 0.726 µM in [6]. For the same molecule, the GI50 in assay [7] was 0.0915 µM; in assay [8] it was 0.0874 µM; in assay [9], 2.77 µM; in [10], 0.459 µM. In addition, the TGI in assay [1] is 0.828 µM; in [2], greater than 100 µM; in [3] it was greater than 100 µM; in assay [4] it was greater than 100 µM; in assay [5], greater than 100 µM; in assay [6], greater than 100 µM. In addition, the TGI is 0.559 µM in [7], 1.56 µM in assay [8], greater than 100 µM in assay [9] and 8.08 µM in assay [10].
Regarding `COC(=O)Nc1nc2ccccc2[nH]1`, the TGI in [1] is greater than 73.8 µM; in assay [2] it was greater than 100 µM; in assay [3] it was greater than 100 µM; in assay [4], greater than 100 µM; in assay [5] it was greater than 100 µM; in assay [6] it was 8.05 µM. The TGI in assay [7], in assay [8], in assay [9] and in assay [10] was greater than 100 µM each time.
In the case of `COc1ccc(-c2cncn2-c2cc(OC)c(OC)c(OC)c2)cc1`, the GI50 in assay [2] is 0.366 µM; in assay [3], 0.0585 µM; in assay [4], 0.115 µM; in assay [5] it was 0.552 µM; in [6], 0.0178 µM; in assay [7], less than 0.0163 µM. For the same molecule, the GI50 in [8] was 0.249 µM; in assay [9], 0.318 µM; in [10], 0.103 µM. In addition, the TGI in [2] was 49.4 µM; in assay [3], greater than 100 µM; in assay [4] it was 43.7 µM; in assay [5], greater than 40 µM; in assay [6], 0.0567 µM; in assay [8] it was 52 µM. Also, the TGI in [9] is greater than 100 µM; in assay [10], 9.7 µM.
